The values that follow come from a melting point compilation (Tetko et al.; mined from patent text by program, amines drawn as free bases though some values may be those of a salt).

Consider `COc1cc(C2CCN(CC(O)CF)CC2)ccc1Nc1ncc2ccc(-c3ccccc3N(C)S(C)(=O)=O)n2n1` (stereo not drawn), for which the melting point (usually the temperature of the solid-liquid transition) was 82 to 95 °C.

In the case of `CCOC(=O)c1cc(O)c2cc3c(O)cc(C(=O)OCC)nc3c(N3CCCCCC3)c2n1`, the melting point lay within 301 to 302 °C.

`Cc1cc(-n2ccnc2)ccc1[N+](=O)[O-]` displayed a melting point of 138 to 140 °C.

In turn, `O=C(Nc1ccc2cc(CN3CCCC3)cnc2c1)c1ccc(-c2ccc(Cl)cc2)nc1` yielded a melting point of 223 to 225 °C.

Consider `OCc1ccc(Nc2nc(Oc3ccccc3)nc(Oc3ccccc3)n2)cc1`, for which the melting point was in the range of 152 to 154 °C.

The compound `COC(=O)C(C)Oc1ccc(N(C)c2nnc3cc(Cl)ccc3n2)cc1` (stereo not drawn) came in with a melting point of 120 °C.

As for `COc1ccc2c(c1)OCC(/C=C/C=C/C=C/C(=O)O)=C2`, the melting point lay in the range of 238 to 240 °C.

`Cc1c(CC(=O)O)c2cc(O)ccc2n1C(=O)c1ccc(Cl)c(Cl)c1` showed a melting point of 177 to 179 °C.

`Nc1c([N+](=O)[O-])cc(Br)c2c1CN(Cc1ccccc1)CC2` displayed a melting point of 150 to 152 °C.

For the compound `CCCCN(C(=O)CCC(=O)O)C1CC(C)(C)N(OC2CCCCC2)C(C)(C)C1`, the melting point is 110 to 113 °C.

The compound `CCOC(=O)c1cnc(N(CC)Cc2ccc3nc(C)[nH]c(=O)c3c2)s1` gave a melting point of 188 to 192 °C.

`CC(O)C=Cc1ccc2c(c1)Cc1ccccc1-2` (stereo not drawn) showed a melting point of 153 °C.

Take `O=C(Cc1c[nH]c2ccccc12)Nc1cc2c(cn1)[nH]c1ccccc12`: the melting point lay in the range of 252 to 254 °C.

Consider `Fc1c(Cl)cccc1/C=C/c1noc(C(Cl)(Cl)Cl)n1`, for which the melting point is 37 to 38 °C.

`O=C(CCCCC(=O)N1CCN(c2cnccn2)CC1)c1ccc(Cl)cc1` returned a melting point of 138 to 140 °C.

For the compound `O=C1NCCc2c1c1cccc3c1n2CC3`, the melting point fell in the range of 265 to 267 °C.

Regarding `CCOCCOc1ccc(-c2ccc3c(c2)C=C(C(=O)Nc2ccc(CN(C)C4CCOCC4)cc2)CCS3(=O)=O)cc1F`, the melting point lay in the range of 212 to 214 °C.

Take `COC(=O)c1ccc2oc3c(c(=O)c2c1)CCC3=Cc1cc(OC)c(OC)cc1OC`: the melting point lay in the range of 221 to 224 °C.

`CCCN(CCC)CCc1ccc(O)c(N)c1` showed a melting point of 127 to 151 °C.

As for `CC(=O)c1ccc(CCNS(=O)(=O)c2ccc(Br)cc2)cc1`, the melting point lay within 130 to 131 °C.

Compound `CCC(=O)NCCC1CCc2ccc3ncoc3c21` (stereo not drawn) showed a melting point of 89 to 90 °C.

As for `Cc1ccc(C=Nc2c(-c3ccccc3C)nc3c4ccccc4ccn23)cc1`, the melting point turned out to be 160 °C.

Compound `CC(C)(CCn1cnc(-c2ccccc2)c1)NCC(O)c1ccc(O)c(NS(C)(=O)=O)c1` (stereo not drawn) had a melting point of 133 to 136 °C.

With `O=c1[nH]c(=O)n(C2CC(O)C(COC3(c4ccccc4)c4ccccc4Oc4ccccc43)O2)cc1I` (stereo not drawn), the melting point lay in the range of 200 to 202 °C.

Turning to `COc1ccc(C=CC(=O)C2C(=O)C=C(C)OC2=O)cc1` (stereo not drawn), the melting point was 205 to 207 °C.

In turn, `COc1ccc(C2=CC(=O)CC2)cc1OC1CCCC1` displayed a melting point of 136 to 137 °C.

Turning to `COC1CCC2C3CCC4CC(OC(=O)C(C)C)CCC4(C)C3CCC12C` (stereo not drawn), the melting point was in the range of 82 to 87 °C.

On to `COC(=O)CNC(=O)C1CSSC1`, for which the melting point was in the range of 73 to 75 °C.

The compound `CCCc1nnc(CCc2cc(OCc3ccc(OCc4nc(-c5ccccc5)oc4C)c(OC)c3)nn2-c2ccccc2)o1` registered a melting point of 85 to 86 °C.

Take `O=c1[nH]c2cccnc2n1CCCN1CCC(C(O)(c2ccc(F)cc2)c2ccccn2)CC1` (stereo not drawn): the melting point fell in the range of 140 to 144 °C.

Regarding `COC(=O)[C@@H]1[C@H](c2ccccc2)N1S(=O)(=O)c1ccc(C)cc1` (stereo partly drawn), the melting point is 85 to 87 °C.

As to `Cc1cc(=O)n2cccc(S)c2n1`, the melting point lay within 240 to 241 °C.

For `C[C@@H](n1ccn(-c2ccc(-n3nccn3)cc2)c1=O)[C@](O)(Cn1cncn1)c1ccc(F)cc1F`, the melting point lay in the range of 182 to 185 °C.

`CCOCc1nc2c(N)nc(C)c(C)c2n1CC1(O)CCC1` returned a melting point of 190 to 191 °C.

`COC(=O)c1cccc2c1nc(/C=C/c1ccc(OC)c(OC)c1)n2C` showed a melting point of 187 to 189 °C.

As for `COC(=O)C1=C(C)NC(C(C)O)=C(C(=O)OC)C1c1ccccc1Cl` (stereo not drawn), the melting point is 145 to 147 °C.

In turn, `CC(c1ccc2ncccc2c1)n1nnc2ccc(-c3ccc(C(N)=O)c(Cl)c3)nc21` (stereo not drawn) returned a melting point of 140 to 143 °C.

On to `COc1cc(C)c(CCCCCCCCCCCCCCCCCCCCCC(=O)O)c(O)c1OC`, for which the melting point fell in the range of 67 to 68 °C.

Regarding `COc1ccc2c(c1)S(=O)(=O)N(C(OC(=O)c1sccc1Cl)C(C)C)C2=O` (stereo not drawn), the melting point fell in the range of 138 to 140 °C.

In turn, `Cc1ccnc2c1C(=O)c1c(C)cc(=O)[nH]c1C2=O` displayed a melting point of 258 to 261 °C.

In the case of `Nc1cc(Oc2ccc(C(F)(F)F)cc2Cl)ccc1[N+](=O)[O-]`, the melting point lay in the range of 86 to 92 °C.

On to `Oc1ccccc1OCC(F)(F)F`, for which the melting point was in the range of 49 to 50 °C.

For the compound `CC(C)(C)OC(=O)C(C#N)C(c1cccc2ccccc12)c1cccc2ccccc12` (stereo not drawn), the melting point lay within 156 to 157 °C.

Compound `COC(=O)C(=O)C(CCCc1ccccc1)CS(=O)(=O)c1ccc(OC)cc1` (stereo not drawn) yielded a melting point of 95 °C.

Consider `CCCCCc1c(C(C)C)nc(C(C)C)c(CO)c1-c1cccc(Cl)c1`, for which the melting point was in the range of 94 to 95 °C.

Compound `CN1CCC(Oc2ccc3ccccc3n2)(c2ccccc2)CC1` showed a melting point of 80 to 81 °C.

Take `O=[N+]([O-])c1cc(Cl)c(Cl)cc1NCCCCl`: the melting point turned out to be 78 °C.

For the compound `OCCCc1nc(COc2ccc(CCCn3ccnc3)cc2)co1`, the melting point is 63 to 64 °C.

Compound `COc1cc(Oc2cccc(C(F)(F)F)c2)nc(C(=S)Nc2ccccc2)c1` gave a melting point of 126 to 128 °C.

The compound `Cn1c(C(F)(F)F)c([N+](=O)[O-])c2ccc(Cl)cc21` displayed a melting point of 157 to 160 °C.

In the case of `C1CNCCN2CCNCCNCCN(CCN1)CCOCCOCC2`, the melting point amounted to 75 °C.

Compound `Cc1ccc(C(O)CCCO)cc1` (stereo not drawn) yielded a melting point of 43 to 47 °C.

In the case of `CCc1noc(C)c1-c1[nH]c2ccccc2c1C(=O)CCN(C)C`, the melting point lay in the range of 146 to 148 °C.

The compound `COc1cc2[nH]c(=O)c(=O)n(C)c2cc1OC` had a melting point of 308 °C.

Consider `OCc1ccc(-c2cc3c(Nc4ccc(F)c(Cl)c4)ncnc3[nH]2)cc1`, for which the melting point is above 300 °C.

On to `N#Cc1ccc(OCc2cccnc2)cc1OC(CCC(=O)O)c1cccc2c1OCO2` (racemic), for which the melting point was in the range of 181 to 183 °C.

The compound `CC(C)(C)CNc1cc(N2CCNCC2)nc(NCC(C)(C)C)n1` had a melting point of 138 to 140 °C.

`CN(CCO)C(=O)Nc1ccc2c(c1)C(c1ccccc1F)=NCC(=O)N2C` yielded a melting point of 196 to 198 °C.

In turn, `CCCSc1ccc2cc[nH]c2c1` registered a melting point of 54 to 55 °C.

`O=C(CCC(=O)N1CCC(c2ccc(Cl)cc2)CC1)c1ccc2c(c1)CCN(C1CCCC1)CC2`: the melting point fell in the range of 160 to 162 °C.

`COc1cc(C)nc(NC(=O)NS(=O)(=O)c2ccccc2-n2cccn2)n1` came in with a melting point of 200 to 204 °C.

Turning to `COC(=O)/C=C\C1C(C(=O)O)C1(C)C` (stereo not drawn), the melting point came out at 106 °C.

The compound `CC(C(=O)Nc1ccc2[nH]c(=O)oc2c1)N1CCC(Cc2ccccc2)CC1` (stereo not drawn) had a melting point of 116 to 118 °C.

`CCOC(=O)C(C1c2ccccc2C=Cc2ccccc21)[N+](=O)[O-]` (stereo not drawn) registered a melting point of 101 to 103 °C.

Regarding `Cc1cccc(C)c1NC(=O)CN1CCN(CCCC(c2ccc(F)cc2)c2ccc(F)cc2)CCN1`, the melting point fell in the range of 145 to 148 °C.

Compound `COC(=O)[C@@H]1C[C@H](OC(=O)Nc2ccc([N+](=O)[O-])cc2)C(=O)[C@H]2[C@@]1(C)CC[C@H]1C(=O)O[C@H](c3ccoc3)C[C@]21C` gave a melting point of 251 to 253 °C.

In turn, `O=C1c2cccc(NC(=S)Nc3cnccn3)c2C2CCCCN12` (stereo not drawn) had a melting point of 204 °C.

For the compound `COc1ccc(OC2CCN(C)C2)c(C(N)=O)c1` (stereo not drawn), the melting point lay in the range of 85 to 87 °C.

As to `CC(=O)N1C(=O)NC(=O)C12c1ccccc1N(C)C(=O)N2C` (stereo not drawn), the melting point lay in the range of 261 to 263 °C.

As for `Cc1cc(C)c2c(O)c3c(=O)[nH][nH]c(=O)c3nc2c1`, the melting point was above 395 °C.

`Cc1cc(O)nc(-c2cccc(-c3ccccc3)n2)n1`: the melting point was determined as 172 °C.

Take `CC(C)n1nc(-c2cnc(N)nc2-c2ccc(C(F)(F)F)cc2)ccc1=O`: the melting point was in the range of 209 to 210 °C.

Compound `COc1ccc(-c2nc(C)c(NC(=O)c3nnn[nH]3)s2)cc1` registered a melting point of 205 to 207 °C.

With `Cc1cc2c(cc1N1CCCCCC1)OC(=O)C2C` (stereo not drawn), the melting point was 58 to 60 °C.

For `CCc1c(N)nc(-c2ccc(C(F)(F)F)cc2)nc1C(=O)OC`, the melting point fell in the range of 123 to 124 °C.

Consider `Cc1cn(-c2ccc(NC(=O)c3ccc(C)c(C#Cc4ccc(NC5CC5)nn4)c3)cc2C(F)(F)F)cn1`, for which the melting point lay within 125 to 126 °C.

In turn, `CCOC(=O)C1=C(COCCNC(N)=S)NC(C)=C(C(=O)OC)C1c1ccccc1Cl` (stereo not drawn) displayed a melting point of 204 °C.

Take `CCNC(=O)N1C(=O)[C@H](O)[C@@H]1c1ccccc1`: the melting point fell in the range of 141 to 142 °C.

`CN1CCC(OC2c3cccc(CCc4ccccc4)c3CCn3cc(-c4ccccc4)nc32)CC1` (stereo not drawn): the melting point came to 67 °C.

`O=C(O)/C=C/c1cccc(OS(=O)(=O)C(F)(F)F)c1` yielded a melting point of 107 °C.

The compound `Cc1c(NC(=O)CC(C)(C)C)c(C)c2c(c1-c1ccc(N(C)C)nc1)OCC2c1ccc(C(C)C)cc1` (stereo not drawn) yielded a melting point of 217 to 220 °C.

In turn, `Cc1cc(-c2cc(C(F)F)n3ncc(C(=O)O)c3n2)ccc1C(F)(F)F` came in with a melting point of 217 °C.

Take `COc1cc(-c2c(C)noc2C)cc2oc(=O)c(C)c(C)c12`: the melting point lay within 145 to 147 °C.

As to `Cc1cc(Nc2cc(-c3cccc(N4Cc5cc(C(C)(C)C)ccc5C4=O)c3CO)cn(C)c2=O)nn1C`, the melting point was in the range of 225 to 227 °C.

Compound `COC(=O)c1ccc(N)cc1C(=O)OC` registered a melting point of 83 to 85 °C.

Turning to `CC1(C)OC(=C(C#N)C#N)C(C#N)=C1c1ccc(F)cc1`, the melting point was 263 °C.

For the compound `COc1ccc(-c2nc(C(F)(F)F)[nH]c2-c2ccc(S(C)(=O)=O)cc2)cc1OC`, the melting point fell in the range of 221 to 224 °C.

`CNC1=NN(c2cccc(C(F)(F)F)c2)CC1` came in with a melting point of 93.1 °C.
